According to US5753458A, “Acylation method for penicillins and cephalosporins” (Gist-Brocades B.V., priority 1994, dated 1998):
Counter-ions that a name gives are not always drawn.

How the values were obtained:
[1] = target: T1, immobilized penicillin G acylase from E. coli (Escherichia coli, UniProt P06875); test: Enzymatic amoxicillin synthesis with immobilized Pen G acylase and various enzyme modulators (Example 8); format: biochemical; settings: standard synthesis conditions; enzyme 13 U/ml
T1 sequence (P06875 27-235): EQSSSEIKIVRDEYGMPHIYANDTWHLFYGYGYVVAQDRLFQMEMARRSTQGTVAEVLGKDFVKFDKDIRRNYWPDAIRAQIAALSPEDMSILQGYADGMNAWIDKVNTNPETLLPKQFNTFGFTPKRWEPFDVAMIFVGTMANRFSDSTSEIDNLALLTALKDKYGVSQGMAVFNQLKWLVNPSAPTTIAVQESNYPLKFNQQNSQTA
T1 sequence (P06875 290-846): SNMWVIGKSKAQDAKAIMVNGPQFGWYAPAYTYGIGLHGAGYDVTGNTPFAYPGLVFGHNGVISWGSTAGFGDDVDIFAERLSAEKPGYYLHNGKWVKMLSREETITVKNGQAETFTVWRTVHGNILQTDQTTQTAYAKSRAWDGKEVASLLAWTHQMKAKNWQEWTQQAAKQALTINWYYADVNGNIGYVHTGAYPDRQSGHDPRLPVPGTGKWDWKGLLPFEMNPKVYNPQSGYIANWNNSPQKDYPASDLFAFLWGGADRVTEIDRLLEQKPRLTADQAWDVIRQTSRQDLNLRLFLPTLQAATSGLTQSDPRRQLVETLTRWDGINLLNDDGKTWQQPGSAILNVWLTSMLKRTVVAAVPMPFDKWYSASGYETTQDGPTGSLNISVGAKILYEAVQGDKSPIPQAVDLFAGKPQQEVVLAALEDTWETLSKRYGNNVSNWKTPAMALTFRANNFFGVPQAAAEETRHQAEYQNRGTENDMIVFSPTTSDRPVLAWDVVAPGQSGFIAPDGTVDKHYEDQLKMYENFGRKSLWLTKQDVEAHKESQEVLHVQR
Source text: (§1) The ratio X is defined as the number of moles of D-HPGA consumed per mole of Amox produced. For practical use this can be transformed to X=1+moles D-HPG/moles Amox, wherein "moles D-HPG" is the molar amount of D-HPG produced by hydrolysis of the acylating agent and the desired product and "moles Amox" is the molar amount of Amox present in the reaction mixture. Thus, if X is 1 this means that only the desired synthesis takes place, no hydrolysis. If X is 2, this means that D-HPG and Amox are formed in equal amounts (on a molar basis). If X is 3, this means that twice as much D-HPG as Amox is present in the reaction mixture (on a molar basis). The ratio X can be calculated at any time during reaction, but in the following examples X is calculated at the reaction stop time, which is defined as the time at which 90 % of the theoretical yield of Amox is present in the reaction mixture (based on the inserted amount of 6-APA). Square brackets are used to designate molar concentrations.
(§2) In Examples 1-8 the following standard conditions for enzymatic amoxicillin synthesis have been used (see patent application No. WO 92/01061 for further details):
(§3) During the reactions, the pH value of the reaction mixtures was kept constant by titration with 2M sulphuric acid.
(§4) Representative samples of the reaction mixtures including solid constituents were taken at regular intervals during the reactions and analyzed by HPLC.
The compounds listed below improve synthesis performance (standard synthesis conditions, immobilized penicillin G acylase from E. coli; enzyme dosing 13 U/ml) in the sense that when they are present in the reaction mixture in a concentration within the interval specified, synthesis of the desired β-lactam antibiotic is favoured as compared to hydrolysis of the acylating agent: […]

[2] = target: T1, immobilized penicillin G acylase from E. coli; test: Enzymatic amoxicillin synthesis with immobilized Pen G acylase, L-(+)-mandelic acid varied (Example 6); format: biochemical; settings: enzyme 12.0 U/ml
Source text: (§5) V0 (Amox) is the initial velocity of Amox formation, and V0 (D-HPG) is the initial velocity of D-HPG formation, specified as μmoles/min/g enzyme, μmoles/min/ml reaction mixture, or nmoles/min/U (enzyme activity).
as §1, §2, §3, §4
A standard synthesis (immobilized penicillin G acylase from E. coli; enzyme dosing 12.0 U/ml) was carried out with no L-(+)-mandelic acid added.
Same conditions as in Experiment A were employed, except that L-(+)-mandelic acid was added to the reaction mixture at the beginning of the experiment in amounts as specified in Table 6. A side product obtained was α-hydroxybenzylpenicillin.

[3] = target: T1, immobilized penicillin G acylase from E. coli; test: Enzymatic amoxicillin synthesis with immobilized Pen G acylase, Phox concentration varied (Example 1); format: biochemical; settings: enzyme 8.6 U/ml
Source text: as §5, §1, §3, §4

[4] = target: T2, agarose based penicillin G acylase immobilizate (Escherichia coli, UniProt P06875); test: Enzymatic amoxicillin synthesis with varying enzyme amounts and constant Phox (Example 4); format: biochemical; settings: [Phox] 31 μM
T2 construct: processed alpha/beta heterodimer cut from one precursor (signal and spacer peptides removed)
T2 sequence (P06875 290-846): as above
T2 sequence (P06875 27-235): as the sequence (P06875 27-235) above
Source text: as §5, §1, §3, §4
An agarose based penicillin G acylase immobilizate was employed in the following experiments. The immobilizate which was kept in water was drained of excess water on a filter by applying suction for 1 min.

[5] = target: T3, Boehringer Mannheim immobilized penicillin G acylase, experimental preparation (Escherichia coli, UniProt P06875); test: Enzymatic amoxicillin synthesis with immobilized Pen G acylase, 2-thiopheneacetic acid varied (Example 7); format: biochemical; settings: enzyme 12 U/ml
T3 construct: purchased Boehringer Mannheim (experimental preparation)
T3 sequence (P06875 27-235): as above
T3 sequence (P06875 290-846): as the sequence (P06875 290-846) above
Source text: as §5, §1, §2, §3, §4
A standard synthesis (Boehringer Mannheim immobilized penicillin G acylase, experimental preparation; enzyme dosing 12 U/ml) was carried out with no 2-thiopheneacetic acid added.
Same conditions as in Experiment A were employed, except that 2-thiopheneacetic acid was added to the reaction mixture at the beginning of the experiment in amounts as specified in Table 7.

[6] = target: T1, immobilized penicillin G acylase from E. coli; test: Enzymatic amoxicillin synthesis with immobilized Pen G acylase, Phyl concentration varied (Example 2); format: biochemical; settings: [Phox] 2.6 μM, enzyme 8.6 U/ml
Source text: as §5, §1, §2, §3, §4
A standard synthesis (immobilized penicillin G acylase from E. coli; enzyme dosing 8.6 U/ml) was carried out with no Phyl added.
Same conditions as in Experiment A were employed, except that Phyl was added to the reaction mixture at the beginning of the experiment in amounts so that the concentrations specified in Table 2 were obtained.

[7] = Solubility of acylating agent in aqueous system; format: physicochemical; settings: aqueous system as used in the examples; dependent on salts, pH, temperature
Source text: The solubility of the acylating agent such as the D-phenylglycine or D-p-hydroxyphenylglycine derivative or originating from the D,L mixtures as described in EP-A-339751, will vary with the identity of the derivative and with the composition of the reaction medium. […] However, the solubility is very dependent on the salt components in the solution, as well as on the pH value and the temperature of the solution. In some embodiments of the process of this invention, the initial reaction mixture is a slurry containing undissolved acylating agent and/or amino β-lactam, which will dissolve partly or fully during the course of the reaction. The β-lactam antibiotic formed may precipitate during the reaction and, also, the hydrolysis products of the acylating agent such as D-phenylglycine and D-p-hydroxyphenylglycine, may precipitate.

[8] = Exp B, [L-(+)-Mandelic acid] 0.64 mM
[9] = Exp C, [L-(+)-Mandelic acid] 3.3 mM
[10] = Exp D, [L-(+)-Mandelic acid] 6.7 mM
[11] = Exp E, [L-(+)-Mandelic acid] 13.3 mM
[12] = Exp F, [L-(+)-Mandelic acid] 14.2 mM
[13] = Exp G, [L-(+)-Mandelic acid] 36.1 mM
[14] = Exp A, [Phox] 2.6 μM (residual, none added)
[15] = Exp B, [Thiopheneacetic acid] 0.03 mM
[16] = Exp C, [Thiopheneacetic acid] 0.3 mM

CC1(C)[C@H](C(=O)O)N2C(=O)[C@@H](NC(=O)Cc3ccccc3)[C@H]2[S+]1[O-] (stereo partly drawn) [Penicillin G sulfoxide]
Concentration interval where improvement of ratio X is found [1]: 2 to 500 µM

O=C(O)[C@@H](O)c1ccccc1 [L-(+)-Mandelic acid, L-(+)-mandelic acid]
Initial velocity V0 (Amox) [2, 8]: 156 nmoles/min/U | Initial velocity V0 (D-HPG) [2, 8]: 207 nmoles/min/U | Reaction stop time [2, 8]: 2.4 h | X at reaction stop time [2, 8]: 2.9 | Initial velocity V0 (Amox) [2, 9]: 137 nmoles/min/U | Initial velocity V0 (D-HPG) [2, 9]: 174 nmoles/min/U | Reaction stop time [2, 9]: 2.8 h | X at reaction stop time [2, 9]: 2.8 | Initial velocity V0 (Amox) [2, 10]: 119 nmoles/min/U | Initial velocity V0 (D-HPG) [2, 10]: 146 nmoles/min/U | Reaction stop time [2, 10]: 3.0 h | X at reaction stop time [2, 10]: 2.65 | Initial velocity V0 (Amox) [2, 11]: 89 nmoles/min/U | Initial velocity V0 (D-HPG) [2, 11]: 110 nmoles/min/U | Reaction stop time [2, 11]: 4.7 h | X at reaction stop time [2, 11]: 2.65 | Initial velocity V0 (Amox) [2, 12]: 80 nmoles/min/U | Initial velocity V0 (D-HPG) [2, 12]: 106 nmoles/min/U | Reaction stop time [2, 12]: 4.2 h | X at reaction stop time [2, 12]: 2.8 | Initial velocity V0 (Amox) [2, 13]: 49 nmoles/min/U | Initial velocity V0 (D-HPG) [2, 13]: 68 nmoles/min/U | Reaction stop time [2, 13]: 5.5 h | X at reaction stop time [2, 13]: 2.8 | optimal concentration with respect to minimization of the ratio X ([2]; under the conditions chosen): 3.3 to 14.2 mM

CC1(C)S[C@@H]2[C@H](NC(=O)COc3ccccc3)C(=O)N2[C@H]1C(=O)O [Penicillin V]
Concentration interval where improvement of ratio X is found [1]: 2-1000 μm

O=S(=O)(F)Cc1ccccc1 [Phenylmethylsulfonyl fluoride]
Concentration interval where improvement of ratio X is found [1]: 0.2 to 10 µM

CC1(C)S[C@@H]2[C@H](NC(=O)Cc3ccccc3)C(=O)N2[C@H]1C(=O)O [Penicillin G]
Concentration interval where improvement of ratio X is found [1]: 2 to 1000 µM

O=[N+]([O-])c1ccc(O)c(CBr)c1 [2-Hydroxy-5-nitrobenzyl bromide]
Concentration interval where improvement of ratio X is found [1]: 10 to 500 µM

O=C(O)COc1ccccc1 [Phox, phenoxyacetic acid]
Initial velocity V0 (Amox) [3, 14]: 17.7 µmol/min/g | Initial velocity V0 (D-HPG) [3, 14]: 25.0 µmol/min/g | Reaction stop time [3, 14]: 2.1 h | X at reaction stop time [3, 14]: 2.9 | Initial velocity V0 (Amox) ([3]; Exp B, [Phox] 9.9 μM): 13.1 µmol/min/g | Initial velocity V0 (D-HPG) ([3]; Exp B, [Phox] 9.9 μM): 16.5 µmol/min/g | Reaction stop time ([3]; Exp B, [Phox] 9.9 μM): 3.3 h | X at reaction stop time ([3]; Exp B, [Phox] 9.9 μM): 2.7 | Initial velocity V0 (Amox) ([3]; Exp C, [Phox] 16.8 μM): 11.9 µmol/min/g | Initial velocity V0 (D-HPG) ([3]; Exp C, [Phox] 16.8 μM): 13.8 µmol/min/g | Reaction stop time ([3]; Exp C, [Phox] 16.8 μM): 4.1 h | X at reaction stop time ([3]; Exp C, [Phox] 16.8 μM): 2.55 | Initial velocity V0 (Amox) ([3]; Exp D, [Phox] 31.0 μM): 8.8 µmol/min/g | Initial velocity V0 (D-HPG) ([3]; Exp D, [Phox] 31.0 μM): 8.8 µmol/min/g | Reaction stop time ([3]; Exp D, [Phox] 31.0 μM): 5.7 h | X at reaction stop time ([3]; Exp D, [Phox] 31.0 μM): 2.35 | Initial velocity V0 (Amox) ([3]; Exp E, [Phox] 61.7 μM): 6.5 µmol/min/g | Initial velocity V0 (D-HPG) ([3]; Exp E, [Phox] 61.7 μM): 5.4 µmol/min/g | Reaction stop time ([3]; Exp E, [Phox] 61.7 μM): 9.5 h | Initial velocity V0 (Amox) ([4]; Exp A, enzyme dosage 11.9 U/ml): 1.17 µmol/min/mL | X at stop time ([4]; Exp A, enzyme dosage 11.9 U/ml): 1.75 | Initial velocity V0 (Amox) ([4]; Exp B, enzyme dosage 23.8 U/ml): 2.97 µmol/min/mL | Initial velocity V0 (D-HPG) ([4]; Exp B, enzyme dosage 23.8 U/ml): 1.85 µmol/min/mL | Initial velocity V0 (D-HPG) ([4]; Exp C, enzyme dosage 47.5 U/ml): ca. 5.6 μmoles/min/ml | X at stop time ([4]; Exp C, enzyme dosage 47.5 U/ml): ca. 2.0

O=C(O)Cc1cccs1 [Thiopheneacetic acid, 2-thiopheneacetic acid]
Initial velocity V0 (Amox) [5, 15]: 1.68 µmol/min/mL | Initial velocity V0 (D-HPG) [5, 15]: 1.95 µmol/min/mL | Reaction stop time [5, 15]: 2.3 h | X at reaction stop time [5, 15]: 2.7 | Initial velocity V0 (Amox) [5, 16]: 0.15 µmol/min/mL | Initial velocity V0 (D-HPG) [5, 16]: 0.058 µmol/min/mL | Reaction stop time [5, 16]: 12 h | X at reaction stop time [5, 16]: 1.6

O=C(O)CSc1ccccc1 [(Phenylthio)acetic acid]
Concentration interval where improvement of ratio X is found [1]: 2 to 1000 µM

O=C(O)Cc1ccccc1 [Phyl, phenylacetic acid]
Initial velocity V0 (Amox) ([6]; Exp B, [Phyl] 32.9 μM): 10.8 µmol/min/g | Initial velocity V0 (D-HPG) ([6]; Exp B, [Phyl] 32.9 μM): 13.8 µmol/min/g | Reaction stop time ([6]; Exp B, [Phyl] 32.9 μM): 4.2 h | X at reaction stop time ([6]; Exp B, [Phyl] 32.9 μM): 2.7 | Initial velocity V0 (Amox) ([6]; Exp C, [Phyl] 63.3 μM): 8.1 µmol/min/g | Initial velocity V0 (D-HPG) ([6]; Exp C, [Phyl] 63.3 μM): 8.8 µmol/min/g | Reaction stop time ([6]; Exp C, [Phyl] 63.3 μM): 5.1 h | X at reaction stop time ([6]; Exp C, [Phyl] 63.3 μM): 2.5 | Initial velocity V0 (Amox) ([6]; Exp D, [Phyl] 127 μM): 5.2 µmol/min/g | Initial velocity V0 (D-HPG) ([6]; Exp D, [Phyl] 127 μM): 5.4 µmol/min/g | Reaction stop time ([6]; Exp D, [Phyl] 127 μM): 5.8 h | X at reaction stop time ([6]; Exp D, [Phyl] 127 μM): 2.2

O=C(O)COc1ccc(O)cc1 [p-Hydroxyphenoxyacetic acid]
Concentration interval where improvement of ratio X is found [1]: 2 to 500 µM

NC(=O)[C@H](N)c1ccccc1 [hydrochloride of D-phenylglycine amide, D-phenylglycine amide]
solubility [7]: approximately 450 mM
